According to publication PMC12250785, “Synthesis of Novel 7-Phenyl-2,3-Dihydropyrrolo[2,1-b]Quinazolin-9(1H)-ones as Cholinesterase Inhibitors Targeting Alzheimer’s Disease Through Suzuki–Miyaura Cross-Coupling Reaction” (Molecules, 2025):

Legend:
AChE (E.C. 3.1.1.7) = AChE (E.C. 3.1.1.7) (Electrophorus electricus, UniProt O42275); assay: biochemical; conditions: for IC50: AChE from electric eel, Ellman method, means ± SD of triplicate independent experiments; for Selectivity (BChE/AChE): BChE IC50/AChE IC50
AChE (E.C. 3.1.1.7), sequence (O42275 24-633): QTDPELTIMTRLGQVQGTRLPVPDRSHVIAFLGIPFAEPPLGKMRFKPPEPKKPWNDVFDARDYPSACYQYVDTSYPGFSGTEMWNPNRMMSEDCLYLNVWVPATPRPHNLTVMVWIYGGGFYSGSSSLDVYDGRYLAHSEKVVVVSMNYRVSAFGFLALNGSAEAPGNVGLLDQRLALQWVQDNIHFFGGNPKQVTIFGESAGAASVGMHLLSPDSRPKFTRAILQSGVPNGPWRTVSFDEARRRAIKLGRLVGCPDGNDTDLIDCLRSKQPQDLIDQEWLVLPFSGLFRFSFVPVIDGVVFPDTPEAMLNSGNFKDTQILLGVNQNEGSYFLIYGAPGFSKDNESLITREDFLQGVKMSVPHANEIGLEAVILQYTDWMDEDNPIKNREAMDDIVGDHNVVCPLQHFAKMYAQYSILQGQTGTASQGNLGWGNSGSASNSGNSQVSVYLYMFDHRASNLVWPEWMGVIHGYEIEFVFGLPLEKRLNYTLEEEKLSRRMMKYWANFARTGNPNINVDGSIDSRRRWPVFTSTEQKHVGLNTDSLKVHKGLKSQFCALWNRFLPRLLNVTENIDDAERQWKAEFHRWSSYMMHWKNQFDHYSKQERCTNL
Experimental: The results are presented as IC50 values.
The total volume of the reaction was 200 μL, consisting of 2 μL of sample, 138 μL of Tris-HCl buffer solution containing acetylcholinesterase (final concentration of 0.03 U/mL), and a control consisting of Tris-HCl buffer solution without the enzyme. The reaction was incubated at room temperature for 10 min. Following this, 20 μL of […] (5 mM) was added, and the reaction was conducted at 37 °C for an additional 10 min.

BChE (E.C. 3.1.1.8) = BChE (E.C. 3.1.1.8) (Equus caballus, UniProt P81908); assay: biochemical; conditions: BChE from horse serum; Ellman method; means ± SD of triplicate independent experiments
BChE (E.C. 3.1.1.8), sequence (P81908 whole entry): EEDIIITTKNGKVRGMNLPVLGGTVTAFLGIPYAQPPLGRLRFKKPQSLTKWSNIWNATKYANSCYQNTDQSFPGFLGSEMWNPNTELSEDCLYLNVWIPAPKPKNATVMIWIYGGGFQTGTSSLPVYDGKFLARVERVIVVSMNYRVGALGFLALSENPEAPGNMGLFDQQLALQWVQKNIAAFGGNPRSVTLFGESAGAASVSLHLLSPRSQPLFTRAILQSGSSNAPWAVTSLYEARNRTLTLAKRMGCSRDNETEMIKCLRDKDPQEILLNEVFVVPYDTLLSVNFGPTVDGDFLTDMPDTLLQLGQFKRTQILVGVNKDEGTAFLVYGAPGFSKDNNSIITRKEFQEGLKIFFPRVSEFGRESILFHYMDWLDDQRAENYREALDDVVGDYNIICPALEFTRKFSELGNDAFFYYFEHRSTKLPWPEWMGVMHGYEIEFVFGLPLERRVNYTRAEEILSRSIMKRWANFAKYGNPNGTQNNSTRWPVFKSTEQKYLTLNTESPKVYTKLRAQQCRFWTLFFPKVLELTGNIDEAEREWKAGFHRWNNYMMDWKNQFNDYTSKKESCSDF

[1] = Solubility in common organic solvents; assay type: physicochemical

Row | SMILES | IC50 (AChE (E.C. 3.1.1.7)) | IC50 (BChE (E.C. 3.1.1.8)) | Selectivity (BChE/AChE) (AChE (E.C. 3.1.1.7)) | solubility in common organic solvents [1]
1 | O=c1c2cc(-c3ccc(Cl)cc3)ccc2nc2n1CCC2 [3a, 7-(4-Chlorophenyl)-2,3-dihydropyrrolo[2,1-b]quinazolin-9(1H)-one] | > 50 µM | > 50 µM |  | 
2 | O=c1c2cc(-c3ccc(F)cc3)ccc2nc2n1CCC2 [3b, 7-(4-Fluorophenyl)-2,3-dihydropyrrolo[2,1-b]quinazolin-9(1H)-one] | 34.8 ± 1.21 µM | 15.5 ± 0.41 µM | 0.5 | 
3 | O=c1c2cc(-c3ccc(C(F)(F)F)cc3)ccc2nc2n1CCC2 [3c, 7-(4-(Trifluoromethyl)phenyl)-2,3-dihydropyrrolo[2,1-b]quinazolin-9(1H)-one] | > 50 µM | > 50 µM |  | 
4 | COc1ccc(-c2ccc3nc4n(c(=O)c3c2)CCC4)cc1 [3d, 7-(4-Methoxyphenyl)-2,3-dihydropyrrolo[2,1-b]quinazolin-9(1H)-one] | 16.2 ± 0.39 µM | > 50 µM |  | 
5 | CC(C)(C)c1ccc(-c2ccc3nc4n(c(=O)c3c2)CCC4)cc1 [3e, 7-(4-(tert-Butyl)phenyl)-2,3-dihydropyrrolo[2,1-b]quinazolin-9(1H)-one] | > 50 µM | > 50 µM |  | 
6 | Cc1cccc(-c2ccc3nc4n(c(=O)c3c2)CCC4)c1 [3f, 7-(m-Tolyl)-2,3-dihydropyrrolo[2,1-b]quinazolin-9(1H)-one] | 28.7 ± 0.69 µM | 22.8 ± 0.49 µM | 0.8 | 
7 | O=c1c2cc(-c3cccc(Cl)c3)ccc2nc2n1CCC2 [3g, 7-(3-Chlorophenyl)-2,3-dihydropyrrolo[2,1-b]quinazolin-9(1H)-one] | 27.9 ± 0.72 µM | 22.2 ± 0.48 µM | 0.8 | 
8 | COc1cccc(-c2ccc3nc4n(c(=O)c3c2)CCC4)c1 [3h, 7-(3-Methoxyphenyl)-2,3-dihydropyrrolo[2,1-b]quinazolin-9(1H)-one] | 17.7 ± 0.84 µM | 41.8 ± 1.28 µM | 2.4 | 
9 | CC(=O)c1cccc(-c2ccc3nc4n(c(=O)c3c2)CCC4)c1 [3i, 7-(3-Acetylphenyl)-2,3-dihydropyrrolo[2,1-b]quinazolin-9(1H)-one] | 33.2 ± 1.01 µM | > 50 µM |  | 
10 | Cc1ccccc1-c1ccc2nc3n(c(=O)c2c1)CCC3 [3j, 7-(o-Tolyl)-2,3-dihydropyrrolo[2,1-b]quinazolin-9(1H)-one] | > 50 µM | 11.1 ± 0.37 µM |  | 
11 | O=c1c2cc(-c3ccc(F)c(Cl)c3)ccc2nc2n1CCC2 [3k, 7-(3-Chloro-4-fluorophenyl)-2,3-dihydropyrrolo[2,1-b]quinazolin-9(1H)-one] | 6.08 ± 0.26 µM | 29 ± 0.74 µM | 4.8 | 
12 | COc1ccc(Cl)cc1-c1ccc2nc3n(c(=O)c2c1)CCC3 [3l, 7-(5-Chloro-2-methoxyphenyl)-2,3-dihydropyrrolo[2,1-b]quinazolin-9(1H)-one] | 14.7 ± 0.48 µM | 28.5 ± 0.46 µM | 2.0 | 
13 | O=c1c2cc(-c3cccc4ccccc34)ccc2nc2n1CCC2 [3m, 7-(Naphthalen-1-yl)-2,3-dihydropyrrolo[2,1-b]quinazolin-9(1H)-one] | > 50 µM | 32 ± 0.72 µM |  | 
14 | O=c1c2cc(-c3ccccc3)ccc2nc2n1CCC2 [3n, 7-Phenyl-2,3-dihydropyrrolo[2,1-b]quinazolin-9(1H)-one] | 35.9 ± 1.03 µM | 22.9 ± 0.57 µM | 0.64 | 
15 | O=c1c2cc(-c3ccc(Cl)cc3)ccc2nc2n1CCCC2 [4a, 2-(4-Chlorophenyl)-6,7,8,9-tetrahydro-11H-pyrido[2,1-b]quinazolin-11-one] | > 50 µM | > 50 µM |  | 
16 | O=c1c2cc(-c3ccc(F)cc3)ccc2nc2n1CCCC2 [4b, 2-(4-Fluorophenyl)-6,7,8,9-tetrahydro-11H-pyrido[2,1-b]quinazolin-11-one] | 34.6 ± 1.27 µM | > 50 µM |  | 
17 | O=c1c2cc(-c3ccc(C(F)(F)F)cc3)ccc2nc2n1CCCC2 [4c, 2-(4-(Trifluoromethyl)phenyl)-6,7,8,9-tetrahydro-11H-pyrido[2,1-b]quinazolin-11-one] | > 50 µM | > 50 µM |  | 
18 | COc1ccc(-c2ccc3nc4n(c(=O)c3c2)CCCC4)cc1 [4d, 2-(4-Methoxyphenyl)-6,7,8,9-tetrahydro-11H-pyrido[2,1-b]quinazolin-11-one] | 33.2 ± 1.08 µM | > 50 µM |  | 
19 | CC(C)(C)c1ccc(-c2ccc3nc4n(c(=O)c3c2)CCCC4)cc1 [4e, 2-(4-(tert-Butyl)phenyl)-6,7,8,9-tetrahydro-11H-pyrido[2,1-b]quinazolin-11-one] | > 50 µM | > 50 µM |  | 
20 | Cc1cccc(-c2ccc3nc4n(c(=O)c3c2)CCCC4)c1 [4f, 2-(m-Tolyl)-6,7,8,9-tetrahydro-11H-pyrido[2,1-b]quinazolin-11-one] | 6.39 ± 0.31 µM | 10.7 ± 0.64 µM | 1.7 | poor solubility
21 | O=c1c2cc(-c3cccc(Cl)c3)ccc2nc2n1CCCC2 [4g, 2-(3-Chlorophenyl)-6,7,8,9-tetrahydro-11H-pyrido[2,1-b]quinazolin-11-one] | 21.3 ± 0.88 µM | 22.9 ± 0.76 µM | 1.1 | 
22 | COc1cccc(-c2ccc3nc4n(c(=O)c3c2)CCCC4)c1 [4h, 2-(3-Methoxyphenyl)-6,7,8,9-tetrahydro-11H-pyrido[2,1-b]quinazolin-11-one] | 42.7 ± 1.8 µM | 42.3 ± 1.23 µM | 1 | 
23 | CC(=O)c1cccc(-c2ccc3nc4n(c(=O)c3c2)CCCC4)c1 [4i, 2-(3-Acetylphenyl)-6,7,8,9-tetrahydro-11H-pyrido[2,1-b]quinazolin-11-one] | 11.1 ± 0.73 µM | > 50 µM |  | 
24 | Cc1ccccc1-c1ccc2nc3n(c(=O)c2c1)CCCC3 [4j, 2-(o-Tolyl)-6,7,8,9-tetrahydro-11H-pyrido[2,1-b]quinazolin-11-one] | > 50 µM | > 50 µM |  | 
25 | O=c1c2cc(-c3ccc(F)c(Cl)c3)ccc2nc2n1CCCC2 [4k, 2-(3-Chloro-4-fluorophenyl)-6,7,8,9-tetrahydro-11H-pyrido[2,1-b]quinazolin-11-one] | > 50 µM | > 50 µM |  | 
26 | COc1ccc(Cl)cc1-c1ccc2nc3n(c(=O)c2c1)CCCC3 [4l, 2-(5-Chloro-2-methoxyphenyl)-6,7,8,9-tetrahydro-11H-pyrido[2,1-b]quinazolin-11-one] | > 50 µM | 46.6 ± 1.45 µM |  | 
27 | O=c1c2cc(-c3cccc4ccccc34)ccc2nc2n1CCCC2 [4m, 2-(Naphthalen-1-yl)-6,7,8,9-tetrahydro-11H-pyrido[2,1-b]quinazolin-11-one] | > 50 µM | > 50 µM |  | 
28 | O=c1c2cc(-c3ccccc3C(F)(F)F)ccc2nc2n1CCCC2 [4n, 2-(2-(Trifluoromethyl)phenyl)-6,7,8,9-tetrahydro-11H-pyrido[2,1-b]quinazolin-11-one] | > 50 µM | 43.2 ± 1.27 µM |  | 
